Literature values, collected in patent US8541630B2, “Process for producing dimethyl ether from methanol” (China Petroleum & Chemical Corporation, priority 2008, dated 2013).
Like-named read-outs stand apart in the source and are kept apart here.

COC [DME, Dimethyl ether]
Solubility (solvent Acetone (25° C.)): 11.83 wt % | Solubility (solvent Benzene (25° C.)): 15.29 wt % | Solubility (solvent CCl4 (25° C.)): 16.33 wt % | Solubility (solvent Chlorobenzene (106 kPa, 25° C.)): 18.56 wt % | Solubility (solvent Gasoline, 0° C.): 19 wt % | Solubility (solvent Gasoline, 25° C.): 7 wt % | Solubility (solvent Gasoline, −40° C.): 64 wt % | Solubility (solvent Methyl acetate (93.86 kPa, 25° C.)): 11.1 wt % | Solubility (solvent Water (24° C.)): 35.3 wt %
